From ChEMBL document CHEMBL1201862, “PubChem BioAssay data set” (2004)
The source made the active and inactive calls.

Assays:
[1] = target: T1, Streptokinase A (Streptococcus pyogenes serotype M1, UniProt P10520); assay: viability-normalized secreted streptokinase activity reduction – plasminogen activation absorbance, OD405, dose response (AID 1914); format: functional, Streptococcus pyogenes M1 GAS;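 note: secreted streptokinase activity via plasminogen activation per viability signal from cell pellet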
T1 sequence (P10520 whole entry): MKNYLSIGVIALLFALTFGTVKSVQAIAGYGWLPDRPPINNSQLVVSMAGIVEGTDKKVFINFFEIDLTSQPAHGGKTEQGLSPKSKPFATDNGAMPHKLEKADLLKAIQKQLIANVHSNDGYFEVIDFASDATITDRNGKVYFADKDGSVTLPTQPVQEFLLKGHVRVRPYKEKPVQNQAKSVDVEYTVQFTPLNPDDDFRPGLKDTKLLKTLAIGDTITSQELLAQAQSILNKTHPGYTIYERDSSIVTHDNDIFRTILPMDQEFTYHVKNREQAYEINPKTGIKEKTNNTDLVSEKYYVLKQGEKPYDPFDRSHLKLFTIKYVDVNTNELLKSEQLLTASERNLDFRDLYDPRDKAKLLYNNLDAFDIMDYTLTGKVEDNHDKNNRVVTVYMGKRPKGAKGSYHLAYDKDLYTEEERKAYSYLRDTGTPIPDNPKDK

[2] = test system: INS1; assay: INS-1E survival protection against cytokine death – cell-based, luminescence, retest, dose response (AID 449756); format: functional; details: Rattus norvegicus;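 note: cell death triggered by IL-1 beta plus TNF-alpha plus IFN-gamma mixture; protective hits raise ATP signal compared with cytokine alone wells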
[3] = test system: Streptococcus; assay: GAS UMAA2166 growth inhibition – luminescence, BacTiterGlo, counter-screen for streptokinase expression inhibitor project, dose response (AID 1915); format: functional, organism-based;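 note: potency for reduction of bacterial viability or growth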
[4] = target: T2, Apoptotic protease-activating factor 1 (Homo sapiens, UniProt O14727); format: functional
T2 sequence (O14727 whole entry): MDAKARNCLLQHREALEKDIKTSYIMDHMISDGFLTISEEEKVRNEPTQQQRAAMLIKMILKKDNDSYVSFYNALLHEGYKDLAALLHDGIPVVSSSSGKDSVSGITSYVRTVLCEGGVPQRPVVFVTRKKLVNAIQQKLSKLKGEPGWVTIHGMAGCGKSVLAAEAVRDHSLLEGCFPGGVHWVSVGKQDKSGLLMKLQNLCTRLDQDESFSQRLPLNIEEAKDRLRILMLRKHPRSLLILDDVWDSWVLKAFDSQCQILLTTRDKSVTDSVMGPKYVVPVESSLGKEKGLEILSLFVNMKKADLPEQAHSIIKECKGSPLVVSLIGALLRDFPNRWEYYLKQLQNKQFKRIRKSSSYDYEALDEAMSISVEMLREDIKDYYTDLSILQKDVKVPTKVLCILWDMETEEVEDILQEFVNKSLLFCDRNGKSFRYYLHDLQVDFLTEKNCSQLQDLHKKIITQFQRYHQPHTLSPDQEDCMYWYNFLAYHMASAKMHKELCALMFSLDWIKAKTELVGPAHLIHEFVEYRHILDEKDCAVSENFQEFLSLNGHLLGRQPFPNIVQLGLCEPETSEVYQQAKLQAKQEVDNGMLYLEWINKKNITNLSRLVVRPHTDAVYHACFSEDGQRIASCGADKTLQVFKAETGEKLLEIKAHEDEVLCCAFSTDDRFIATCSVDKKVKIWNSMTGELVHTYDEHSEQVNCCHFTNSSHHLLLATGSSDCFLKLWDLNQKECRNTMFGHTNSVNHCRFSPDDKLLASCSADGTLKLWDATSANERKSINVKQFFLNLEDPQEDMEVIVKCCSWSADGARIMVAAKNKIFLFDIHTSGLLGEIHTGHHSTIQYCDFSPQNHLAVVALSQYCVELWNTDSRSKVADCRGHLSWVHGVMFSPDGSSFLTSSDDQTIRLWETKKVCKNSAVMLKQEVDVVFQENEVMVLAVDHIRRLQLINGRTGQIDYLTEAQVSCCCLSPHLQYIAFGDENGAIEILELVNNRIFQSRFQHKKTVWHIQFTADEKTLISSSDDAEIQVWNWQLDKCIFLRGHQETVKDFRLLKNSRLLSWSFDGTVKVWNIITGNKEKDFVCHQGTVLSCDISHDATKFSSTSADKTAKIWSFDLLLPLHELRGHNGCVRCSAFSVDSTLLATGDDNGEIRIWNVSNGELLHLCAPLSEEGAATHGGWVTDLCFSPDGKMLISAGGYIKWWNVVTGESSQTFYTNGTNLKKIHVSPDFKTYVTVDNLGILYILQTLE

[5] = target: Glycogen synthase kinase-3 alpha (Homo sapiens, UniProt P49840); format: functional;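 note: GSK3A result taken from a broad kinome-wide kinase panel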
[6] = target: Macrophage colony-stimulating factor 1 receptor (Homo sapiens, UniProt P07333); format: functional;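 note: value comes from the Navigating the Kinome screening panel, CSF1R member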
[7] = target: Serine/threonine-protein kinase TAO1 (Homo sapiens, UniProt Q7L7X3); format: functional
Serine/threonine-protein kinase TAO1, sequence (Q7L7X3 whole entry): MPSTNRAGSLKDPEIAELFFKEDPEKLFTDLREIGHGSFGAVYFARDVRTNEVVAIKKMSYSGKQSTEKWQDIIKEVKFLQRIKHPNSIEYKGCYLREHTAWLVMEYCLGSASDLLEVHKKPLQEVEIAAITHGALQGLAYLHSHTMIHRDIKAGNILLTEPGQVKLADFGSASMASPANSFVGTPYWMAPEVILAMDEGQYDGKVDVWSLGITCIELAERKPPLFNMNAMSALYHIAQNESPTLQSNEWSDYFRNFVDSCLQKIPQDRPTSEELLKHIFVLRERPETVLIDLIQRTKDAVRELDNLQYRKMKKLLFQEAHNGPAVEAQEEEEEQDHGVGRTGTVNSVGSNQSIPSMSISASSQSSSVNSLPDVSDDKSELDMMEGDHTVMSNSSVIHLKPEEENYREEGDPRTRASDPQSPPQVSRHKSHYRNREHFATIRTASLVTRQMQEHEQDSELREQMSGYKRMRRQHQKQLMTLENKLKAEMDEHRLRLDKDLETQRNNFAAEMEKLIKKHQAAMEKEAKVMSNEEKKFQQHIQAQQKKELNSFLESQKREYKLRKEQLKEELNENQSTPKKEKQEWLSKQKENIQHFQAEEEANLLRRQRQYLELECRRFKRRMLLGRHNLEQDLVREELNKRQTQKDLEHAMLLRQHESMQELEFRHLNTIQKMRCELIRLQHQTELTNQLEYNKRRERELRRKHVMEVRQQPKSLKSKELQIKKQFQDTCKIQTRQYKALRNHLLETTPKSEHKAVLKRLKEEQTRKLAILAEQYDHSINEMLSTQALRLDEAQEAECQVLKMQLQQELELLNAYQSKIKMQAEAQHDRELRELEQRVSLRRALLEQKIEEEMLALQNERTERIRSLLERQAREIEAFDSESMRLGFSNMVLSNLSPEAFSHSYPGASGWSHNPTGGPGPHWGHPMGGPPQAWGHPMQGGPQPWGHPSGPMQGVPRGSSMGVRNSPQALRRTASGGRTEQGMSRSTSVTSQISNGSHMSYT

[8] = target: Rho-associated protein kinase 1 (Homo sapiens, UniProt Q13464); format: functional;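 note: measured within a broad kinome-wide panel profiling many kinases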
[9] = target: Fibroblast growth factor receptor 1 (Homo sapiens, UniProt P11362); format: functional
[10] = target: Mitogen-activated protein kinase kinase kinase kinase 2 (Homo sapiens, UniProt Q12851); format: functional;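 note: measured as one member of a kinome-wide kinase panel, with MAP4K2 as the panel entry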
[11] = target: ALK tyrosine kinase receptor (Homo sapiens, UniProt Q9UM73); format: functional;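 note: ALK tested as one member of a kinase panel screen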
ALK tyrosine kinase receptor, sequence (Q9UM73 whole entry): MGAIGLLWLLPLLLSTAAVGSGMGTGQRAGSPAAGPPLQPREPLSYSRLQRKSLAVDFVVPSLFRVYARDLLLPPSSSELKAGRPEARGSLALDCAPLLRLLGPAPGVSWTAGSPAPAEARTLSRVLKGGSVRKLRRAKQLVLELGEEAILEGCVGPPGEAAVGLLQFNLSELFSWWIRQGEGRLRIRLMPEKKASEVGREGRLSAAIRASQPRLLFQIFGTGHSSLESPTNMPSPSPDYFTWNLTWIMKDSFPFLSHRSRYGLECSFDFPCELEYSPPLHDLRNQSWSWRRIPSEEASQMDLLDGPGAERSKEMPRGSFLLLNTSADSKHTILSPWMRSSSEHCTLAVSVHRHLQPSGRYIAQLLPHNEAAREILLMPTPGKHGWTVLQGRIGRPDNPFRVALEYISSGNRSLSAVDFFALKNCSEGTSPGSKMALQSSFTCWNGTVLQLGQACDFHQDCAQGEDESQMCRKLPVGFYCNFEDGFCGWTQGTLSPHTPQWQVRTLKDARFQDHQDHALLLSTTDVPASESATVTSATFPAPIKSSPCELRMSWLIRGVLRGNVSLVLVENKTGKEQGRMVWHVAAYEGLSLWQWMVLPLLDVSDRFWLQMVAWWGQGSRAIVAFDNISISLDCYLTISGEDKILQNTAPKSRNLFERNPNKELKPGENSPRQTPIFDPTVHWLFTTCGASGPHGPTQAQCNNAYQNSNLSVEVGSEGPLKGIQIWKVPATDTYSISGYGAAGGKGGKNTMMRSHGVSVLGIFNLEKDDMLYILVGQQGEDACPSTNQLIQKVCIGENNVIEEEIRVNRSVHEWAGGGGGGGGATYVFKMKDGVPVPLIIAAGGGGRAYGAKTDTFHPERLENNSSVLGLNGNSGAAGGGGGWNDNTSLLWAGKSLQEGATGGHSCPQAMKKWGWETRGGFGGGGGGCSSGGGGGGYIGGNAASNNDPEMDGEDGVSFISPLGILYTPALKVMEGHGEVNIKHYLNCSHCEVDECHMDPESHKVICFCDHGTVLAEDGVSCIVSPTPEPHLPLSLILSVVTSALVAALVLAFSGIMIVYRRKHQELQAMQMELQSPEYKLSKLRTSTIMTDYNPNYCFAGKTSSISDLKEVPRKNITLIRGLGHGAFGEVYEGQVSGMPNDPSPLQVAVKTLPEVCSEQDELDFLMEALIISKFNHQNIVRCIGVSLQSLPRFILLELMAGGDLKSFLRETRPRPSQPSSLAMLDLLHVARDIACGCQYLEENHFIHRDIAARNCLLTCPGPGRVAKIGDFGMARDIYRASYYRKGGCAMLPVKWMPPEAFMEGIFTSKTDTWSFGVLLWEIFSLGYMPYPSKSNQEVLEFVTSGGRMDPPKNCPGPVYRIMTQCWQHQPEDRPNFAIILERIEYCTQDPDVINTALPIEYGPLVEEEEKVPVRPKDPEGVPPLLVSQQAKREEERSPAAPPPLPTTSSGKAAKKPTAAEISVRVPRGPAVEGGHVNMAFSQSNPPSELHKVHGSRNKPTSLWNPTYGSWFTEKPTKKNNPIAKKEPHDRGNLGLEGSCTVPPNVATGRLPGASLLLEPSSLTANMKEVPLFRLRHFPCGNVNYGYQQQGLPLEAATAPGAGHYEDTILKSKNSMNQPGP

[12] = target: Tyrosine-protein kinase BTK (Homo sapiens, UniProt Q06187); format: functional
Tyrosine-protein kinase BTK, sequence (Q06187 whole entry): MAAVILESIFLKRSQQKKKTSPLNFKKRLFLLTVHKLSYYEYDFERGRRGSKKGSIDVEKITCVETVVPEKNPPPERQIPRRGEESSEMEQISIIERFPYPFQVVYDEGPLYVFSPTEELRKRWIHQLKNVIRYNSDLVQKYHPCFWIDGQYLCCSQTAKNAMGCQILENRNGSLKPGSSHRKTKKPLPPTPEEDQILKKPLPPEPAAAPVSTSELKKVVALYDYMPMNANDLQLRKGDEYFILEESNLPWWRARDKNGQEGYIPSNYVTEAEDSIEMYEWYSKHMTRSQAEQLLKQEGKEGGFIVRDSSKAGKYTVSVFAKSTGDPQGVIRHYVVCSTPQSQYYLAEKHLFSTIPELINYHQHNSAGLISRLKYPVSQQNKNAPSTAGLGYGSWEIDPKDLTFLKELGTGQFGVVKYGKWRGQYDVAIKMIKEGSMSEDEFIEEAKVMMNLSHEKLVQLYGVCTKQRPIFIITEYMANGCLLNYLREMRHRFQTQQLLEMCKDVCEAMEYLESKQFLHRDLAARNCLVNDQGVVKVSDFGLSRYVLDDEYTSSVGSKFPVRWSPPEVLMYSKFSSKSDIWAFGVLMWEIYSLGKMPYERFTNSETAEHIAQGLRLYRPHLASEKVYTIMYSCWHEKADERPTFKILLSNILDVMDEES

[13] = target: Serine/threonine-protein kinase TBK1 (Homo sapiens, UniProt Q9UHD2); assay: Navigating the Kinome. Panel member name: TBK1; format: functional
[14] = target: Dual specificity mitogen-activated protein kinase kinase 2 (Homo sapiens, UniProt P36507); assay: Navigating the Kinome. Panel member name: MAP2K2; format: functional
Dual specificity mitogen-activated protein kinase kinase 2, sequence (P36507 whole entry): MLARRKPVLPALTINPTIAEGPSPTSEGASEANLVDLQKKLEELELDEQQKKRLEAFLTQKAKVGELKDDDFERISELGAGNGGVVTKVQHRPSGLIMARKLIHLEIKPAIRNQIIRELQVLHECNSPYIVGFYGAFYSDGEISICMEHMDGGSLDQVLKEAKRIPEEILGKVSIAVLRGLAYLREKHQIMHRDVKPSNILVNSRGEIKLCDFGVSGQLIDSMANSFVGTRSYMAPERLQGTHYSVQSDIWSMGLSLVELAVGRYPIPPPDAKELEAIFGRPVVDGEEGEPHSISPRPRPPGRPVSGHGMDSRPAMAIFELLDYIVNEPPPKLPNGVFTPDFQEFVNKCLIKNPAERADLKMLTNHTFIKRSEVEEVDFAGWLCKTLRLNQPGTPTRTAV

[15] = target: Macrophage-stimulating protein receptor (Homo sapiens, UniProt Q04912); assay: Navigating the Kinome. Panel member name: MST1R; format: functional
Macrophage-stimulating protein receptor, sequence (Q04912 25-304 limits assumed): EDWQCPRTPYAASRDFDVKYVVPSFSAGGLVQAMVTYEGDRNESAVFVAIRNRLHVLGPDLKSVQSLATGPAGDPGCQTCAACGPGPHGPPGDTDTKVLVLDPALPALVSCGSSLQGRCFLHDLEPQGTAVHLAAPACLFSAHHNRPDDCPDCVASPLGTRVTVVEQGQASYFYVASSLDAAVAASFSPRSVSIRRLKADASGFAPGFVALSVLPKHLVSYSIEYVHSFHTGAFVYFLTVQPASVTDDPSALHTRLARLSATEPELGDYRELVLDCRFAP
Macrophage-stimulating protein receptor, sequence (Q04912 310-1400 limits assumed): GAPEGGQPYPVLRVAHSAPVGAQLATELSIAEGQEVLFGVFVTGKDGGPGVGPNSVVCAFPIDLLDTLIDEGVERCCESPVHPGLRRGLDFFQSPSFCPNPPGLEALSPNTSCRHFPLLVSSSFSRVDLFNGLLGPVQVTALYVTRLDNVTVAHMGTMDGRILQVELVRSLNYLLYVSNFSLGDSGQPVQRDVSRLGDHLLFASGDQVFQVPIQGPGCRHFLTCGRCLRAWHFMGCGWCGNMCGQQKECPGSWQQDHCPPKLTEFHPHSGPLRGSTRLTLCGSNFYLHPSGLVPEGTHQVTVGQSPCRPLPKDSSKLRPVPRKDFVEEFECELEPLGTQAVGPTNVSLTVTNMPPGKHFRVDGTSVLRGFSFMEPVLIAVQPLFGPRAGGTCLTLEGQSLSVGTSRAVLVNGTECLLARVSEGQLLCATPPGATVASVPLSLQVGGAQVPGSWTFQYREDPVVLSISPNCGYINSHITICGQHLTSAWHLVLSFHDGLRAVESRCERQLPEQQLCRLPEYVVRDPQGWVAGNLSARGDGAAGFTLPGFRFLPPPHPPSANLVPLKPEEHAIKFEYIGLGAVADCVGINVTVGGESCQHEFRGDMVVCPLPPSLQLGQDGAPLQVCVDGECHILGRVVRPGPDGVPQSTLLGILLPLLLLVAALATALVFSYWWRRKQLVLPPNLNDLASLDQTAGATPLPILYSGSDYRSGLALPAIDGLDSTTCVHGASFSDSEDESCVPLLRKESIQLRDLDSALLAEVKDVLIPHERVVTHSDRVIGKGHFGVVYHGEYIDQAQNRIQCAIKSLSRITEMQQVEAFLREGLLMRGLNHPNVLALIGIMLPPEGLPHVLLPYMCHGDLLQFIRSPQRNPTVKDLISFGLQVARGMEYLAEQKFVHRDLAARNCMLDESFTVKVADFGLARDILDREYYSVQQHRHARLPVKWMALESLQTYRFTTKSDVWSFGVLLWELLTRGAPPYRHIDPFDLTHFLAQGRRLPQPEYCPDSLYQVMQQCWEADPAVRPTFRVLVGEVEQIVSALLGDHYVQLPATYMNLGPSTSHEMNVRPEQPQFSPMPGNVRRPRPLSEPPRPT

CNC[C@H](Cc1ccccc1)NC[C@@H](Cc1cccc2ccccc12)NCCc1ccc(C)cc1 was tested, and the EC50 [1] was > 150 µM (not active), the AC50 [2] was 7.38 µM (active) and the EC50 [3] was 7.51 µM (active).
With Nc1nnc2c(n1)CCCC2 the IC50 [4] was 7.19 µM (active).
For O=C(Cc1ccccc1Cl)NC1(O)C(=O)c2ccccc2C1=O, the IC50 [4] was 12 µM (active).
In the case of O=C(N/N=C/c1c(O)ccc2ccccc12)c1[nH]ncc1Br, the AC50 [2] was 0.558 µM (active).
Nc1c(-c2ccc(NC(=O)Nc3cccc(C(F)(F)F)c3)cc2)cnc2c(-c3ccc4c(c3)OCO4)cnn12 was tested, and the Ki [5] was > 3.98 µM (inactive), the Ki [6] was 63.1 nM (active) and the Ki [7] was > 6.31 µM (inactive). For the same compound, the Ki [8] was > 3.98 µM (inactive), the Ki [9] was > 3.98 µM (inactive) and the Ki [10] was > 2.51 µM (inactive). The Ki [11] was > 6.31 µM (inactive), the Ki [12] was 0.316 µM (active) and the Ki [13] was > 3.16 µM (inactive). The Ki [14] was > 3.98 µM (inactive) and the Ki [15] was > 3.98 µM (inactive).
For O=C(Nc1cc(-c2c[nH]c3ncccc23)cc(Cl)n1)c1ccccc1, the Ki [5] was > 3.98 µM (inactive), the Ki [6] was > 2510 nM (inactive) and the Ki [7] was > 6.31 µM (inactive). The Ki [8] was > 0.316 µM (inactive), the Ki [9] was > 3.98 µM (inactive) and the Ki [10] was > 2.51 µM (inactive). The Ki [11] was > 6.31 µM (inactive), the Ki [12] was > 6.31 µM (inactive) and the Ki [13] was > 3.16 µM (inactive). The Ki [14] was > 3.98 µM (inactive) and the Ki [15] was > 3.98 µM (inactive).
For CCN1C(=Cc2sc3ccccc3[n+]2C)C=Cc2cccc(C)c21, the EC50 [1] was > 150 µM (not active) and the EC50 [3] was 8.99 µM (active).
